Assay results as given in patent publication US20240190868A1, “SOS1 INHIBITORS” (Acerand Therapeutics (USA) Limited, priority 2022, published 2024).

Tested on: cellular pERK in NCI-H1975 cells (EGFR/L858R-T790M)
Experiment: pERK potency assay (In Cell ELISA)
Format: cell-based
Conditions: Homo sapiens, 1 h compound incubation
Excerpt: The assay measures the ability of a compound to inhibit SOS1 function in cells. SOS1 activates RAS proteins by catalyzing the conversion of RAS GDP to RAS GTP in response to receptor tyrosine kinase activation. Activation of RAS induces a sequence of cellular signaling events that result in increased phosphorylation of ERK at Threonine 202 and Tyrosine 204 (pERK). The procedure (i.e., In Cell ELISA as described below) measures the level of cellular pERK in response to a test compound in NCI-H1975 cells (EGFR/L858R-T790M).
First, NCI-H1975 cells were grown and maintained using media and procedures recommended by the ATCC. A day before compound addition, cells were plated in poly-D-lysine coated 96-well cell culture plates (Corning® BioCoat® Cat #356640) at 25000 cells/well/100 μL and grown overnight in an incubator at 37° C. with 5% CO2. A solution of a test compound was prepared with 3-fold serial dilutions in DMSO having a top concentration of 6 mM. On the day of the assay, 50 μL of a test compound dilution in media was added to each well of cell culture plate with a final compound concentration in the range of 0.001 μM to 20 μM. After addition of the compound, cells were incubated for 1 h at 37° C. with 5% CO2, after which the culture medium was removed. Cells were fixed with 4% formaldehyde in phosphate-buffered saline (PBS) and incubated at RT for 20 min. The plate was washed three times with PBST (PBS with 0.05% Tween®-20), followed by incubation with 100 μL of pre-cooled methanol at −20° C. for 20 min. After incubation, methanol was removed. The plate was again washed with PBST. Cells were then permeabilized with 100 μL/well of 0.1% Triton X-100 in PBS at RT for 20 min and then quenched with a quenching buffer (PBST containing 1% H2O2 and 0.1% sodium azide) for 20 min at RT with gentle shaking. After washing once with PBST, a blocking buffer (250 uL/well, Pierce™ Protein-Free-PBS Blocking Buffer, Cat #37572) was then added to the cells for 1-h incubation at RT, followed by an anti-pERK antibody (cell signaling, 1:1000 dilution in 5% BSA in PBST) incubation overnight at 4° C. and a secondary antibody-HRP (Jackson immunoresearch, 1:3000 dilution in 5% BSA in PBST) incubation at RT for 1 h. PBST wash was carried out after each step three times. Before the addition of a substrate (Advansta ELISABright™), the plate was washed with PBS twice to remove detergent residues. The Cellular pERK level was determined using the microplate reader (Biotek Synergy™ H1) to detect the chemiluminescence signal. IC50 was determined by fitting a 4-parameter sigmoidal concentration-response model.

Structure (SMILES)	IC50 [nM]
COc1nc(C2(O)CCN(C(C)=O)CC2)cc2/c(=N/[C@H](C)c3cccc(C(F)(F)F)c3C)ncn(C)c12 [Compound 22, (R,Z)-1-(4-hydroxy-4-(8-methoxy-1-methyl-4-((1-(2-methyl-3-(trifluoromethyl)phenyl)ethyl)imino)-1,4-dihydropyrido[3,4-d]pyrimidin-6-yl)piperidin-1-yl)ethan-1-one]	< 100
CC(=O)N1CC=C(c2cc3/c(=N/[C@H](C)c4cccc(C#N)c4C)nc4n(c3cn2)CCO4)CC1 [Compound 34]	< 100
Cc1c(C#N)cccc1[C@@H](C)/N=c1\nc(C)n(C)c2cnc(N3CCC4(CC3)CC4)cc12 [Compound 60]	< 100
CC(=O)N1CCN(c2cc3/c(=N/[C@H](C)c4cccc(C#N)c4C)nc(C)n(C)c3cn2)CC1 [Compound 56]	< 100
Cc1c([C@@H](C)/N=c2\nc(C)n(C)c3cnc(N4CCOCC4)cc23)cccc1C(F)(F)F [Compound 55]	< 100
Cc1c(C#N)cccc1[C@@H](C)/N=c1\nc(C)n(C)c2cnc(N3CCOCC3)cc12 [Compound 54, (R,Z)-3-(1-((1,2-dimethyl-6-morpholinopyrido[3,4-d]pyrimidin-4(1H)-ylidene)amino)ethyl)-2-methylbenzonitrile]	< 100
C#C[C@@H](/N=c1\nc(C)n(C)c2cnc(C3=CCN(C(C)=O)CC3)cc12)c1cccc(C(F)(F)F)c1C [Compound 11]	< 100
Cc1c(C#N)cccc1[C@@H](C)/N=c1\nc(C)n(C)c2cnc(N3CCC3)cc12 [Compound 71]	< 100
CC(=O)N1CCN2c3cc4/c(=N/[C@H](C)c5cccc(C(F)F)c5F)ncn(C)c4cc3OC[C@H]2C1 [Compound 92, 1-((R,Z)-11-(((R)-1-(3-(difluoromethyl)-2-fluorophenyl)ethyl)imino)-8-methyl-1,2,4a,5,8,11-hexahydropyrazino[1′,2′:4,5][1,4]oxazino[3,2-g]quinazolin-3(4H)-yl)ethan-1-one]	< 100
CC(=O)NC/C=C/c1cc2/c(=N/[C@H](C)c3cccc(C(F)F)c3F)nc(C)n(C)c2cn1 [Compound 98, N-((E)-3-((Z)-4-(((R)-1-(3-(difluoromethyl)-2-fluorophenyl)ethyl)imino)-1,2-dimethyl-1,4-dihydropyrido[3,4-d]pyrimidin-6-yl)allyl)acetamide]	< 100
CC(=O)N1CCC(F)(c2cc3/c(=N/[C@H](C)c4cccc(C#N)c4C)nc4n(c3cn2)CCC4)CC1 [Compound 30]	< 100
Cc1c(C#N)cccc1[C@@H](C)/N=c1\nc(C)n(C)c2cnc(C3=CCC(F)(F)CC3)cc12 [Compound 40]	< 100
Cc1c(C#N)cccc1[C@@H](C)/N=c1\nc(C)n(C)c2cnc(N3CC4CC4C3)cc12 (stereo partly shown) [Compound 72]	< 100
CC(=O)N1CC=C(c2cc3/c(=N/[C@H](C)c4cccc(C#N)c4C)nc(C)n(C)c3cn2)CC1 [Compound 7]	< 100
Cc1c(C#N)cccc1[C@@H](C)/N=c1\nc(C)n(C)c2cnc(N3CCCCC3)cc12 [Compound 64]	< 100
CC(=O)N1CC=C(c2cc3/c(=N/[C@H](C)c4cccc(C(F)(F)F)c4C)ncn(C)c3c(=O)n2C)CC1 [Compound 82, (R,Z)-6-(1-acetyl-1,2,3,6-tetrahydropyridin-4-yl)-1,7-dimethyl-4-((1-(2-methyl-3-(trifluoromethyl)phenyl)ethyl)imino)-1,7-dihydropyrido[3,4-d]pyrimidin-8(4H)-one]	< 100
Cc1c([C@@H](C)/N=c2\nc(C)n(C)c3cnc(N4CCC(F)(F)C4)cc23)cccc1C(F)(F)F [Compound 62]	< 100
CC(=O)N1CC=C(c2ccc3c(c2)/c(=N/[C@H](C)c2cccc(C(F)(F)F)c2C)nc(C)n3C)CC1 [Compound 37]	< 100
COc1cc2c(cc1O[C@H]1CCOC1)/c(=N/[C@H](C)c1cccc(C(F)(F)F)c1C)nc(C)n2C [Compound 84, (Z)-7-methoxy-1,2-dimethyl-N—((R)-1-(2-methyl-3-(trifluoromethyl)phenyl)ethyl)-6-(((S)-tetrahydrofuran-3-yl)oxy)quinazolin-4(1H)-imine]	< 100
